This assay concerns CD2F1 mice, L1210 leukemia ip, survival T/C. The assay is described as follows: NCI In Vivo Anticancer Drug Screen. Data for tumor model L1210 Leukemia (intraperitoneal) in CD2F1 (CDF1) mice. Conditions: endpoint: mean survival time, higher = longer survival. An outline of the steps:
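Ratio T/C, where T is the treated-group value and C the vehicle-dosed control value, from mice implanted with a transplantable tumor.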

The mark [1] stands for this setting: dose: 25.0 mg/kg/injection, schedule: Q04DX002 (ip), vehicle: saline with Tween-80.
Setting [2] is: dose: 50.0 mg/kg/injection, schedule: Q04DX002 (ip), vehicle: saline with Tween-80.
[3] abbreviates: dose: 100.0 mg/kg/injection, schedule: Q04DX002 (ip), vehicle: saline with Tween-80.
The mark [4] stands for this setting: dose: 100.0 mg/kg/injection, schedule: Q04DX003 (ip), vehicle: saline with Tween-80.
The mark [5] stands for this setting: dose: 200.0 mg/kg/injection, schedule: Q04DX003 (ip), vehicle: saline with Tween-80.
[6] abbreviates: dose: 400.0 mg/kg/injection, schedule: Q04DX003 (ip), vehicle: saline with Tween-80.
The mark [7] stands for this setting: dose: 50.0 mg/kg/injection, schedule: Q01DX009 (ip), vehicle: saline with Tween-80.
Where [8] appears, read: dose: 200.0 mg/kg/injection, schedule: Q01DX009 (ip), vehicle: saline with Tween-80.
Setting [9] is: dose: 100.0 mg/kg/injection, schedule: Q01DX001 (ip), vehicle: saline with Tween-80.
Setting [10] is: dose: 200.0 mg/kg/injection, schedule: Q01DX001 (ip), vehicle: saline with Tween-80.
[11] abbreviates: dose: 400.0 mg/kg/injection, schedule: Q01DX001 (ip), vehicle: saline with Tween-80.
Where [12] appears, read: dose: 100.0 mg/kg/injection, schedule: Q01DX009 (ip), vehicle: saline with Tween-80.
[13] abbreviates: dose: 100.0 mg/kg/injection, schedule: Q01DX001 (ip), vehicle: saline.
Setting [14] is: dose: 200.0 mg/kg/injection, schedule: Q01DX001 (ip), vehicle: saline.
[15] abbreviates: dose: 400.0 mg/kg/injection, schedule: Q01DX001 (ip), vehicle: saline.
The mark [16] stands for this setting: dose: 400.0 mg/kg/injection, schedule: Q01DX009 (ip), vehicle: saline with Tween-80.

Where “and” joins values, the source holds several entries; their conditions need not be identical. Equal entries are not always repeated. Toxic doses and inconclusive results are not listed.

As for `[Co].c1ccc2c3[n-]c(c2c1)/N=c1\[n-]/c(c2ccccc12)=N\c1[n-]c(c2ccccc12)/N=c1\[n-]/c(c2ccccc12)=N\3`, the T/C by setting is: under setting [1], 90 % of control; under setting [2], 93 % of control; under setting [3], 90 % of control.
Regarding `C=COCCN1CCN(CCCN2c3ccccc3Sc3ccc(C(F)(F)F)cc32)CC1`, the T/C runs as follows: (dose: 12.5 mg/kg/injection, schedule: Q04DX003 (ip), vehicle: saline with Tween-80) 113 % of control; (dose: 25.0 mg/kg/injection, schedule: Q04DX003 (ip), vehicle: saline with Tween-80) 113 % of control.
Turning to `CC1(C)COC(C)(C(=O)O)OC1`, the T/C was 98 % of control under setting [4], 98 % of control under setting [5] and 96 % of control under setting [6].
Regarding `Cc1cc(C)c(NC2=NCCS2)cc1C`, the T/C under setting [1] is 101 % of control, the T/C under setting [2] is 104 % of control and the T/C under setting [3] is 101 % of control.
As to `COCC1OC(OC(=O)c2ccccc2)C(OC(=O)c2ccccc2)C(OC(=O)c2ccccc2)C1OC` (stereo unspecified), the T/C is, setting by setting: under setting [7], 101 % of control; under setting [8], 93 % of control.
With `O=NN(CCCl)C(=O)NC1C(O)C(O)C(O)C(O)C1O` (stereo unspecified), the T/C (dose: 13.0 mg/kg/injection, schedule: Q01DX001 (ip), vehicle: saline) was 167 % of control and 220 % of control; the T/C (dose: 20.0 mg/kg/injection, schedule: Q01DX001 (ip), vehicle: saline) is 173 % of control and 227 % of control; the T/C (dose: 25.0 mg/kg/injection, schedule: Q01DX001 (ip), vehicle: saline) is 255 % of control; the T/C (dose: 30.0 mg/kg/injection, schedule: Q01DX001 (ip), vehicle: saline) is 271 % of control and 282 % of control; the T/C (dose: 44.0 mg/kg/injection, schedule: Q01DX001 (ip), vehicle: saline) was 197 % of control.
`CCCCCCC[CH2][Sn]([CH2]CCCCCCC)([NH]S(=O)(=O)c1ccc(C)cc1)[NH]S(=O)(=O)c1ccc(C)cc1`: the T/C was 113 % of control (dose: 75.0 mg/kg/injection, schedule: Q01DX001 (ip), vehicle: other) and 107 % of control (dose: 150.0 mg/kg/injection, schedule: Q01DX001 (ip), vehicle: other).
Consider `N#Cc1cccc2c(S(=O)(=O)O)cccc12`, for which the T/C under setting [4] was 98 % of control, the T/C under setting [5] was 90 % of control and the T/C under setting [6] was 104 % of control.
For the compound `COc1ccc(CC2c3cc(OC)c(OC)cc3CCN2C(C)=O)cc1` (stereo unspecified), the T/C is 101 % of control under setting [4], 100 % of control under setting [5] and 100 % of control under setting [6].
Turning to `CN(C)c1ccc(C=C(Cl)Cl)cc1`, the T/C was 87 % of control (dose: 100.0 mg/kg/injection, schedule: Q04DX002 (ip), vehicle: other); 91 % of control (dose: 200.0 mg/kg/injection, schedule: Q04DX002 (ip), vehicle: other); 93 % of control (dose: 400.0 mg/kg/injection, schedule: Q04DX002 (ip), vehicle: other).
Regarding `COc1ccccc1C(=O)CC(O)(C(F)(F)F)C(F)(F)F`, the T/C was 95 % of control under setting [9], 100 % of control under setting [10] and 109 % of control under setting [11].
As for `C[N+](C)(C)CCOC(=O)CCC(=O)OCC[N+](C)(C)C`, the T/C (dose: 0.31 mg/kg/injection, schedule: Q01DX009 (ip), vehicle: saline sonified) is 92 % of control; the T/C (dose: 0.63 mg/kg/injection, schedule: Q01DX009 (ip), vehicle: saline sonified) was 96 % of control; the T/C (dose: 1.25 mg/kg/injection, schedule: Q01DX009 (ip), vehicle: saline sonified) was 103 % of control; the T/C (dose: 6.25 mg/kg/injection, schedule: Q04DX003 (ip), vehicle: saline) was 101 % of control; the T/C (dose: 12.5 mg/kg/injection, schedule: Q04DX003 (ip), vehicle: saline) was 100 % of control.
In the case of `Cc1ccc(C2=CC(=O)C(c3ccc(C)cc3C)=CC2=O)c(C)c1`, the T/C under setting [9] was 92 % of control; the T/C under setting [3] is 86 % of control; the T/C under setting [10] was 91 % of control; the T/C (dose: 200.0 mg/kg/injection, schedule: Q04DX002 (ip), vehicle: saline with Tween-80) was 93 % of control; the T/C under setting [11] is 94 % of control; the T/C (dose: 400.0 mg/kg/injection, schedule: Q04DX002 (ip), vehicle: saline with Tween-80) is 101 % of control.
For `OC(C=C(C(F)(F)F)C(F)(F)F)c1cccs1` (stereo unspecified), under setting [12], the T/C is 95 % of control.
With `Nc1ccccc1-c1ccccc1N`, the T/C (dose: 100.0 mg/kg/injection, schedule: Q04DX002 (ip), vehicle: saline) is 87 % of control.
On to `CC([NH-])CC[NH-].[Cl][Pt+2][Cl]` (stereo unspecified), for which the T/C (dose: 6.25 mg/kg/injection, schedule: Q04DX003 (ip), vehicle: saline with Tween-80) was 151 % of control.
As for `C=C1OC(n2cnc3c(N)ncnc32)C(O)C1O` (stereo unspecified), the T/C under setting [13] is 98 % of control, the T/C under setting [14] was 101 % of control and the T/C under setting [15] was 98 % of control.
For `OCC(O)C(O)C(O)C(O)/C=N/O` (stereo unspecified), the T/C runs as follows: under setting [7], 97 % of control; under setting [12], 97 % of control; under setting [8], 104 % of control.
Consider `CCC1Cc2c([nH]c(=O)n(-c3ccccc3)c2=O)O1` (stereo unspecified), for which the T/C runs as follows: under setting [13], 95 % of control; under setting [14], 98 % of control; under setting [15], 92 % of control.
For the compound `CCN(CC)CCOc1ccc2c(c1)C(=O)c1cc(OCCN(CC)CC)ccc1-2`, the T/C was 95 % of control (dose: 12.5 mg/kg/injection, schedule: Q01DX009 (ip), vehicle: saline); 98 % of control (dose: 25.0 mg/kg/injection, schedule: Q01DX009 (ip), vehicle: saline); 101 % of control (dose: 50.0 mg/kg/injection, schedule: Q01DX009 (ip), vehicle: saline).
On to `COc1cccc2c1CCN1C3=C(CC(OC)CC3)C(=O)CC21` (stereo unspecified), for which the T/C is 93 % of control under setting [1], 104 % of control under setting [2], 96 % of control under setting [3] and 101 % of control under setting [4].
In the case of `CC(=O)C1=C(C)NC(C)=C(C(C)=O)C1c1cccc([N+](=O)[O-])c1`, the T/C under setting [4] is 94 % of control, the T/C under setting [5] was 91 % of control and the T/C under setting [6] is 96 % of control.
`Clc1ccccc1CCCBr`: the T/C under setting [12] is 96 % of control; the T/C under setting [4] was 92 % of control; the T/C under setting [8] was 104 % of control; the T/C under setting [5] is 97 % of control; the T/C under setting [16] was 106 % of control; the T/C under setting [6] is 88 % of control.
Consider `N.O=S(=O)(O)O.[Al]`, for which the T/C was 97 % of control under setting [7]; 91 % of control under setting [12]; 94 % of control under setting [4]; 96 % of control under setting [8]; 99 % of control under setting [5].
As for `O=C(/C=C/c1ccccn1)c1ccccc1`, the T/C by setting is: (dose: 100.0 mg/kg/injection, schedule: Q04DX002 (ip), vehicle: Klucel (hydroxypropylcellulose) (HPC)) 97 % of control; (dose: 200.0 mg/kg/injection, schedule: Q04DX002 (ip), vehicle: Klucel (hydroxypropylcellulose) (HPC)) 104 % of control.
Turning to `C1OC1CO[C@@H]1CO[C@H]2[C@@H]1OC[C@H]2OCC1CO1` (stereo partly specified), the T/C (dose: 12.5 mg/kg/injection, schedule: Q01DX009 (ip), vehicle: suspension in saline) was 100 % of control.
With `O=C1C2C3CCC(C3)C2C(=O)C2C3CCC(C3)C12` (stereo unspecified), the T/C runs as follows: (dose: 100.0 mg/kg/injection, schedule: Q04DX003 (ip), vehicle: other) 93 % of control; (dose: 200.0 mg/kg/injection, schedule: Q04DX003 (ip), vehicle: other) 89 % of control; (dose: 400.0 mg/kg/injection, schedule: Q04DX003 (ip), vehicle: other) 93 % of control.
For `CCCC(=O)Nc1ccccc1`, the T/C reads like this: under setting [9], 96 % of control; under setting [12], 102 % of control; under setting [10], 95 % of control; under setting [8], 102 % of control; under setting [11], 98 % of control; under setting [16], 112 % of control.
Consider `CCOC(=O)C(CNc1ccccc1)C(=O)OCC`, for which the T/C is 101 % of control under setting [4], 104 % of control under setting [5] and 104 % of control under setting [6].
